One substance from patent US20230399358A1, “IMMUNOGLOBULIN PURIFICATION PEPTIDES AND THEIR USE” (North Carolina State University, priority 2019, published 2023) can be followed below.

The test system of one test is human IgG. The test is described as follows: Dynamic binding capacity by breakthrough assay. To be noted: 20 mg/mL IgG in PBS. The protocol:
Measurements of dynamic binding capacity (DBC) were performed on a Waters 2695 unit. MWRGWQ (SEQ ID NO:2)—Workbeads and WQRHGIC (SEQ ID NO:30)—Workbeads resins were wet packed in a 0.1 mL microbore column and equilibrated in PBS pH 7.4. A solution of human IgG at 20 mg/mL in PBS was owed through the column at 0.05 mL/min and 0.02 mL/min, corresponding to residence times (RT) of 2 and 5 min, respectively. The bound IgG was eluted with glycine pH 2.5. The absorbance of the effluent was monitored by UV/Vis spectrophotometry at 280 nm throughout the breakthrough study. The DBC was calculated at 10% of the breakthrough curve.
Breakthrough curves (FIG. 5 panels A-D) were obtained by flowing a 20 mg/mL solution of IgG in PBS through the […] and MWRGWQC (SEQ ID NO:31)-WB adsorbents at two different flow rates (0.05 and 0.02 mL/min) corresponding to two different residence times (2 and 5 minutes).

Test [1] concerns human polyclonal IgG in CHO-S cell culture fluid. Put plainly: Static purification of IgG from CHO cell culture supernatant on peptide-Toyopearl resins, SDS-PAGE densitometry. Particulars: Gel B.
For test [2] the test system is unchanged. The description is as above. Particulars: Gel B, lane E (pH 4).

Regarding WQRHGI, the figures for the “DBC at 10% breakthrough” value in the test with human IgG (residence time 2 min) and in the test with human IgG (residence time 5 min) were 33.6 mg IgG/mL resin and 43.8 mg IgG/mL resin, respectively. Also, the “% Purity (IgG over total proteins)” value in test [1] (lane FT (flow-through)) is on record as 52.71%. Further, the “% Purity (IgG over total eluted proteins)” value in test [1] (lane R (pH 2.5)) is given as 78.79%; in test [2], 100%.
